Experimental data published in the NIST ThermoML archive (doi:10.1021/je400332j).
± gives the expanded uncertainty stated by the source.

Test: xn = mol fraction of the nth substance listed
Conditions: 101 kPa, Liquid; for viscosity: Concentric cylinders viscometry; for mass density: Vibrating tube method

CCCn1cc[n+](C)c1.F[B-](F)(F)F [1-propyl-3-methylimidazolium tetrafluoroborate] + CCn1cc[n+](C)c1.F[B-](F)(F)F
Conditions	mass density [kg/m3]	viscosity [mPa·s]
293.15 K, x2 = 0	1239.3 ± 1.1	95.44 ± 7.7
293.15 K, x2 = 0.1003	1243.5 ± 1.1	88.85 ± 7.2
293.15 K, x2 = 0.2001	1247.8 ± 1.1	82.33 ± 6.7
293.15 K, x2 = 0.2997	1251.7 ± 1.1	76.28 ± 6.2
293.15 K, x2 = 0.3999	1256.1 ± 1.1	70.61 ± 5.7
293.15 K, x2 = 0.4996	1260.6 ± 1.1	65.46 ± 5.3
293.15 K, x2 = 0.5991	1265 ± 1.1	60.73 ± 4.9
293.15 K, x2 = 0.6997	1269.7 ± 1.1	56.34 ± 4.5
293.15 K, x2 = 0.7999	1274.4 ± 1.1	52.31 ± 4.2
293.15 K, x2 = 0.8998	1279.2 ± 1.1	48.61 ± 3.9
298.15 K, x2 = 0	1235.7 ± 1.1	74.04 ± 6
298.15 K, x2 = 0.1003	1239.8 ± 1.1	69.32 ± 5.6
298.15 K, x2 = 0.2001	1244 ± 1.1	64.62 ± 5.2
298.15 K, x2 = 0.2997	1248 ± 1.1	60.23 ± 4.9
298.15 K, x2 = 0.3999	1252.4 ± 1.1	56.1 ± 4.5
298.15 K, x2 = 0.4996	1256.9 ± 1.1	52.32 ± 4.2
298.15 K, x2 = 0.5991	1261.3 ± 1.1	48.83 ± 3.9
298.15 K, x2 = 0.6997	1266 ± 1.1	45.57 ± 3.7
298.15 K, x2 = 0.7999	1270.6 ± 1.1	42.59 ± 3.4
298.15 K, x2 = 0.8998	1275.5 ± 1.1	39.79 ± 3.2
303.15 K, x2 = 0	1232 ± 1.1	58.59 ± 4.7
303.15 K, x2 = 0.1003	1236.2 ± 1.1	55.12 ± 4.5
303.15 K, x2 = 0.2001	1240.4 ± 1.1	51.66 ± 4.2
303.15 K, x2 = 0.2997	1244.3 ± 1.1	48.42 ± 3.9
303.15 K, x2 = 0.3999	1248.7 ± 1.1	45.34 ± 3.7
303.15 K, x2 = 0.4996	1253.2 ± 1.1	42.52 ± 3.4
303.15 K, x2 = 0.5991	1257.5 ± 1.1	39.91 ± 3.2
303.15 K, x2 = 0.6997	1262.1 ± 1.1	37.45 ± 3
303.15 K, x2 = 0.7999	1266.9 ± 1.1	35.17 ± 2.8
303.15 K, x2 = 0.8998	1271.7 ± 1.1	33.06 ± 2.7
308.15 K, x2 = 0	1228.3 ± 1.1	47.16 ± 3.8
308.15 K, x2 = 0.1003	1232.5 ± 1.1	44.58 ± 3.6
308.15 K, x2 = 0.2001	1236.6 ± 1.1	41.98 ± 3.4
308.15 K, x2 = 0.2997	1240.7 ± 1.1	39.54 ± 3.2
308.15 K, x2 = 0.3999	1245 ± 1.1	37.21 ± 3
308.15 K, x2 = 0.4996	1249.3 ± 1.1	35.08 ± 2.8
308.15 K, x2 = 0.5991	1253.8 ± 1.1	33.08 ± 2.7
308.15 K, x2 = 0.6997	1258.4 ± 1.1	31.19 ± 2.5
308.15 K, x2 = 0.7999	1263.1 ± 1.1	29.45 ± 2.4
308.15 K, x2 = 0.8998	1267.7 ± 1.1	27.82 ± 2.2
313.15 K, x2 = 0	1224.7 ± 1.1	38.56 ± 3.1
313.15 K, x2 = 0.1003	1228.8 ± 1.1	36.6 ± 2.9
313.15 K, x2 = 0.2001	1233 ± 1	34.63 ± 2.8
313.15 K, x2 = 0.2997	1237 ± 1	32.76 ± 2.6
313.15 K, x2 = 0.3999	1241.3 ± 1.1	30.97 ± 2.5
313.15 K, x2 = 0.4996	1245.6 ± 1.1	29.33 ± 2.4
313.15 K, x2 = 0.5991	1250.1 ± 1.1	27.78 ± 2.2
313.15 K, x2 = 0.6997	1254.6 ± 1.1	26.3 ± 2.1
313.15 K, x2 = 0.7999	1259.3 ± 1.1	24.95 ± 2
313.15 K, x2 = 0.8998	1264 ± 1	23.67 ± 1.9
318.15 K, x2 = 0	1221 ± 1	31.98 ± 2.6
318.15 K, x2 = 0.1003	1225.1 ± 1.1	30.46 ± 2.4
318.15 K, x2 = 0.2001	1229.3 ± 1.1	28.93 ± 2.3
318.15 K, x2 = 0.2997	1233.3 ± 1.1	27.48 ± 2.2
318.15 K, x2 = 0.3999	1237.6 ± 1.1	26.08 ± 2.1
318.15 K, x2 = 0.4996	1241.9 ± 1.1	24.8 ± 2
318.15 K, x2 = 0.5991	1246.3 ± 1.1	23.6 ± 1.9
318.15 K, x2 = 0.6997	1250.9 ± 1.1	22.43 ± 1.8
318.15 K, x2 = 0.7999	1255.6 ± 1.1	21.36 ± 1.7
318.15 K, x2 = 0.8998	1260.3 ± 1.1	20.35 ± 1.6
323.15 K, x2 = 0	1217.4 ± 1.1	26.83 ± 2.2
323.15 K, x2 = 0.1003	1221.5 ± 1.1	25.66 ± 2.1
323.15 K, x2 = 0.2001	1225.6 ± 1.1	24.47 ± 2
323.15 K, x2 = 0.2997	1229.7 ± 1.1	23.33 ± 1.9
323.15 K, x2 = 0.3999	1233.9 ± 1.1	22.21 ± 1.8
323.15 K, x2 = 0.4996	1238.2 ± 1.1	21.2 ± 1.7
323.15 K, x2 = 0.5991	1242.6 ± 1.1	20.24 ± 1.6
323.15 K, x2 = 0.6997	1247.1 ± 1.1	19.31 ± 1.6
323.15 K, x2 = 0.7999	1251.8 ± 1.1	18.46 ± 1.5
323.15 K, x2 = 0.8998	1256.5 ± 1.1	17.65 ± 1.4
328.15 K, x2 = 0	1213.8 ± 1.1	22.77 ± 1.8
328.15 K, x2 = 0.1003	1217.9 ± 1.1	21.85 ± 1.8
328.15 K, x2 = 0.2001	1222 ± 1.1	20.91 ± 1.7
328.15 K, x2 = 0.2997	1226 ± 1.1	20.01 ± 1.6
328.15 K, x2 = 0.3999	1230.3 ± 1.1	19.1 ± 1.5
328.15 K, x2 = 0.4996	1234.6 ± 1.1	18.3 ± 1.5
328.15 K, x2 = 0.5991	1238.9 ± 1.1	17.52 ± 1.4
328.15 K, x2 = 0.6997	1243.4 ± 1.1	16.78 ± 1.4
328.15 K, x2 = 0.7999	1248.1 ± 1.1	16.07 ± 1.3
328.15 K, x2 = 0.8998	1252.8 ± 1.1	15.43 ± 1.2
333.15 K, x2 = 0	1210.2 ± 1.1	19.54 ± 1.6
333.15 K, x2 = 0.1003	1214.3 ± 1.1	18.8 ± 1.5
333.15 K, x2 = 0.2001	1218.4 ± 1.1	18.05 ± 1.4
333.15 K, x2 = 0.2997	1222.4 ± 1.1	17.32 ± 1.4
333.15 K, x2 = 0.3999	1226.6 ± 1.1	16.57 ± 1.3
333.15 K, x2 = 0.4996	1230.9 ± 1.1	15.92 ± 1.3
333.15 K, x2 = 0.5991	1235.2 ± 1.1	15.29 ± 1.2
333.15 K, x2 = 0.6997	1239.8 ± 1.1	14.67 ± 1.2
333.15 K, x2 = 0.7999	1244.4 ± 1.1	14.1 ± 1.1
333.15 K, x2 = 0.8998	1249.1 ± 1.1	13.58 ± 1.1
338.15 K, x2 = 0	1206.6 ± 1.1	16.92 ± 1.4
338.15 K, x2 = 0.1003	1210.7 ± 1.1	16.33 ± 1.3
338.15 K, x2 = 0.2001	1214.8 ± 1.1	15.72 ± 1.3
338.15 K, x2 = 0.2997	1218.8 ± 1.1	15.12 ± 1.2
338.15 K, x2 = 0.3999	1222.9 ± 1.1	14.49 ± 1.2
338.15 K, x2 = 0.4996	1227.3 ± 1.1	13.96 ± 1.1
338.15 K, x2 = 0.5991	1231.6 ± 1.1	13.43 ± 1.1
338.15 K, x2 = 0.6997	1236.1 ± 1.1	12.94 ± 1
338.15 K, x2 = 0.7999	1240.7 ± 1.1	12.46 ± 1
338.15 K, x2 = 0.8998	1245.4 ± 1.1	12.04 ± 0.97
343.15 K, x2 = 0	1203 ± 1.1	14.77 ± 1.2
343.15 K, x2 = 0.1003	1207.1 ± 1.1	14.3 ± 1.1
343.15 K, x2 = 0.2001	1211.1 ± 1.1	13.8 ± 1.1
343.15 K, x2 = 0.2997	1215.2 ± 1.1	13.3 ± 1.1
343.15 K, x2 = 0.3999	1219.4 ± 1.1	12.77 ± 1
343.15 K, x2 = 0.4996	1223.7 ± 1.1	12.32 ± 0.99
343.15 K, x2 = 0.5991	1228 ± 1.1	11.89 ± 0.96
343.15 K, x2 = 0.6997	1232.5 ± 1.1	11.47 ± 0.92
343.15 K, x2 = 0.7999	1237.1 ± 1.1	11.07 ± 0.89
343.15 K, x2 = 0.8998	1241.7 ± 1.1	10.74 ± 0.86
